Results on one molecule are retold here after patent US10617662B2, “Autophagy activation-induced compound for improving skin inflammation for aging” (INCOSPHARM CORPORATION, priority 2017, dated 2020).

This test relates to IL-1β (interleukin-1beta). The test is described as follows: ELISA for IL-1β in LPS-treated HEKa cells. The note with it: LPS-induced inflammatory condition, 10·M, FIG. 10. Format: cell-based, human. The procedure:
ELISA (enzyme-linked immunosorbent assay) for IL-1β (interleukin-1beta) which is very closely related to atopic inflammation and psoriasis was performed.
As a specific experimental method, HEKa cells (Human Epidermal keratinocytes, adult), human-derived epidermal keratinocytes were seeded on a 24 well plate at a density of 1×10^5 cells, and cultured in an EpiLife medium (1× Human keratinocyte Growth supplement, 1× antibiotics) in an incubator under 37° C. and 5% CO2 for 24 hours.
After culturing, while an inflammatory condition was induced by treatment with LPS (lipopolysaccharides) in each well, further treatment was performed with Compound 8 of the present invention and the compound of the following Comparative Example at a concentration of 10·M, and then the cells were incubated for a certain period. After completing culturing, media were collected, and then ELISA for IL-1β was carried out, and the results are shown in FIG. 10.

As to `O=C(O)CN(CCCCNC(CCCCN(CC(=O)O)CC(=O)O)C(=O)O)CC(=O)O` (stereo not shown) [compound of the Comparative Example, reference compound], the “cytokine IL-1β secretion level” value was “negligible”.
